On the set-up of series [1]: method as in PMID 20214587. Particulars: cited from earlier work.
In another series the target is T1, Eya3(ED) (Mus musculus, UniProt P97480).
T1 construct: The catalytic domain (ED) of mouse Eyes Absent 3 (Eya3(223–510)) was purified; made in house
T1 sequence (P97480 223-510): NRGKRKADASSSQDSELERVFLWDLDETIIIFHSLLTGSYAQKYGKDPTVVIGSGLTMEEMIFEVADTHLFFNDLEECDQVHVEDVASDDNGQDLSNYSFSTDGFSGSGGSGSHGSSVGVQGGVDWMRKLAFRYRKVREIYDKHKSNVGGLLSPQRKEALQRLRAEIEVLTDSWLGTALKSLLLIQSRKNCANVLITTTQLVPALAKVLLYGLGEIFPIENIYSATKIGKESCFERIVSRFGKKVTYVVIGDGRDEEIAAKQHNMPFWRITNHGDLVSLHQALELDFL
The series can be described thus: pNPP hydrolysis by the catalytic domain of Eya3. In kind it is biochemical. The source says:
The catalytic domain (ED) of mouse Eyes Absent 3 (Eya3(223–510)) was purified as described before. Human Eyes Absent 3 isoform 2 (representing the major species identified in human cell lines by mass spectrometry and residues 127–573 of NM_001990, isoform 1) was sub-cloned into pDEST565 to express a poly-histidine- Glutathione-S-transferase (His-GST) tagged fusion protein with a TVMV protease site. The protein was purified by glutathione-S-transferase affinity chromatography followed by TVMV cleavage, Ni-NTA chromatography, and finally size exclusion chromatography.
The NCI Diversity Set II was obtained from the NCI in 96-well trays from the NIH Molecular Libraries Program and stored as 10 mM stocks in DMSO. An initial manual screen was conducted using the previously described p-nitrophenylphosphate assay and mouse Eya3(223–510) in a reaction mixture containing 20 mM MES pH 6, 2 mM MgCl2, 125 μM inhibitor, 3.4 mM para-nitrophenol phosphate (pNPP) and 0.01 μg/µL enzyme.
(§1) Compounds were dissolved in DMSO and diluted as needed. […] Reactions were incubated at 30°C for 30 minutes and quenched with 100 mM EDTA pH 10. IC50 values were then calculated directly from regression curves using PRISM. All reported values are the mean of two independent experiments.

The target of another series is T2, EYA3-SIX2 interaction (Homo sapiens, UniProt Q99504).
T2 construct: residues 127–573 of NM_001990, isoform 1; His-GST (poly-histidine, glutathione-S-transferase) with TVMV protease site (cleaved yes); made in house
T2 sequence (Q99504 127-573): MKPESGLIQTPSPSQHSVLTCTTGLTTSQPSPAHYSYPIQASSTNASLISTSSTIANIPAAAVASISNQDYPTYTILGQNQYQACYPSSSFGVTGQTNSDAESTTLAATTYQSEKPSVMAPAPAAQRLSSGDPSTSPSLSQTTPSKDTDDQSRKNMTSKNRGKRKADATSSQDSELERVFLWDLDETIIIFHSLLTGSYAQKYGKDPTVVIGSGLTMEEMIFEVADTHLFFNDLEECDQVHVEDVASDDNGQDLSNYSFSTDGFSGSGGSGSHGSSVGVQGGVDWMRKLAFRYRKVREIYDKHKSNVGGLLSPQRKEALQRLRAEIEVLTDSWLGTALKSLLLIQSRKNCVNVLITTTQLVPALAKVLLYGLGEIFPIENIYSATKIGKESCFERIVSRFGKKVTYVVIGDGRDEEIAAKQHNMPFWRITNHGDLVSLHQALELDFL
T2 sequence (Q9NPC8 1-291 partner): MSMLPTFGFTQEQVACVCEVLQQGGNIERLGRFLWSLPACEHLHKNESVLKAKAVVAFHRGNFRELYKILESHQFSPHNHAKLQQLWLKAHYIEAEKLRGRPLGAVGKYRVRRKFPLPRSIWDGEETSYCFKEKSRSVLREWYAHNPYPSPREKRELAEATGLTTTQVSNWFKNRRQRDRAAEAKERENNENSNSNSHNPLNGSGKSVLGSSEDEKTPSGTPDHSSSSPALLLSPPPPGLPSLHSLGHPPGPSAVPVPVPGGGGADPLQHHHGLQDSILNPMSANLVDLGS
The series can be described thus: His-SIX2 Ni-NTA pull-down of EYA3. In kind it is binding. Particulars: 50 μM, 15 minutes at room temperature. The source says:
The catalytic domain of the EYAs also mediates its interaction with the SIX proteins. This complex then translocates to the nucleus where the SIX-EYA complex can activate transcription.

The conditions of series [2]: cited from earlier work.
Another series concerns the target T3, human EYA2(ED) (Homo sapiens, UniProt O00167).
T3 sequence (O00167 267-538 limits assumed): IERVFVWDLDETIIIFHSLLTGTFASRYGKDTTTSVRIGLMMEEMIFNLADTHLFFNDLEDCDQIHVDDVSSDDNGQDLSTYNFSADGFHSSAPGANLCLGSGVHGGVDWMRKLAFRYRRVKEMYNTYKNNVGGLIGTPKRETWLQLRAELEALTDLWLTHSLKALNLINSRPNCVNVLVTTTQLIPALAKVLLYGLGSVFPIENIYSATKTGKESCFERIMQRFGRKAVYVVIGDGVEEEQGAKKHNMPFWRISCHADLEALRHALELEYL
The series is described as follows: pNPP hydrolysis by the catalytic domain of EYA2. In kind it is biochemical. Particulars: substrate pNPP. As for the experimental part:
The catalytic domain of human Eyes Absent 2 was similarly sub-cloned as a poly-histidine fusion construct in the vector pDEST-527. Fusion protein was purified by Ni-NTA chromatography and followed by size-exclusion chromatography over a Superdex-75 column. The relative purity of protein samples was determined using SDS-PAGE. PTP1B was purified as described previously.
The NCI Diversity Set II was obtained from the NCI in 96-well trays from the NIH Molecular Libraries Program and stored as 10 mM stocks in DMSO. An initial manual screen was conducted using the previously described p-nitrophenylphosphate assay and mouse Eya3(223–510) in a reaction mixture containing 20 mM MES pH 6, 2 mM MgCl2, 125 μM inhibitor, 3.4 mM para-nitrophenol phosphate (pNPP) and 0.01 μg/µL enzyme. The amount of 4-nitrophenol (pNP) produced was monitored at […] on a BioTek EL808 plate reader. A similar protocol was used to screen for inhibitor activity using hEYA3 and hEYA2(ED).
as §1

This is an account of results in article PMC3335822 (PLoS ONE, 2012).

What is called IC50 is the concentration that inhibits the measured activity by half.

For `CCc1oc2ccccc2c1C(=O)c1cc(Br)c(O)c(Br)c1` [Compound 1, Benzbromarone], the hepatotoxicity result in series [1] is “reported hepatotoxicity”. Besides, the “mode of inhibition of Eya3(ED)” value on Eya3(ED) (pNPP substrate titration) is on record as “uncompetitive inhibitor”. Moreover, at EYA3-SIX2 interaction, the “effect on the interaction between EYA3 and SIX2” value was “does not affect the interaction between EYA3 and SIX2”. The half-life entry in series [2] is on record as “about 3 hours”. The same molecule displayed a 50% inhibitory concentration (IC50) at human EYA2(ED) of 10.3 µM.
In the case of `CCc1oc2ccccc2c1C(=O)c1ccc(O)cc1` [Compound 1a, Benzarone], in series [1], the hepatotoxicity entry is “reported hepatotoxicity”. Further, the IC50 against Eya3(ED) (substrate pNPP 3.4 mM, pH 6, 30°C, 30 minutes) is 19.2 µM. In addition, in series [2], the half-life result was “about 3 hours”.
